In ChEMBL document CHEMBL1201862, “PubChem BioAssay data set” (2004):
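Protocol summary: plate cells (96-well), add compound at 5 concentrations, incubate 48 h, interpolate endpoints linearly. GI50 marks 50% less growth.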 The source made the active and inactive calls. Cut-off read from the data, not from the text of the source: active = GI50 up to about 1.1 µM and inactive = higher.

Assays:
Test in all cases: inhibition of tumour cell growth, NCI panel, 48 h
DLD-1 = test system: DLD-1
DMS-114 = test system: DMS-114
DMS-273 = test system: DMS-273
HOP-18 = test system: HOP-18
KM-20L2 = test system: KM-20L2
M19-MEL = test system: M19-MEL
RXF 631 = test system: RXF 631
SNB-78 = test system: SNB-78
XF498 = test system: XF498

Measured: GI50

CCOC(=O)c1c2ccc(/C=C/c3ccccn3)ccc-2c(C(=O)OCC)c1N
inactive: DLD-1 > 100 µM | DMS-114 > 100 µM | DMS-273 > 100 µM | HOP-18 > 100 µM | KM-20L2 > 100 µM | M19-MEL > 100 µM | RXF 631 > 100 µM

CC[P+](C)(C)c1ccccc1
inactive: DLD-1 > 100 µM | DMS-114 > 100 µM | DMS-273 > 100 µM | HOP-18 5 µM | KM-20L2 > 100 µM | M19-MEL > 100 µM | SNB-78 58.1 µM | XF498 > 100 µM

CCOC(=O)c1cc(-c2ccc(-c3cc(C(=O)OCC)c(C#N)c(N)c3C#N)cc2)c(C#N)c(N)c1C#N
inactive: DLD-1 > 100 µM | DMS-114 > 100 µM | DMS-273 > 100 µM | HOP-18 > 100 µM | KM-20L2 > 100 µM | M19-MEL > 100 µM | RXF 631 > 100 µM | SNB-78 > 100 µM | XF498 > 100 µM

O=C(O/N=C1/CCC/C1=C\c1ccccc1)c1ccccc1
inactive: DLD-1 43.8 µM | DMS-114 35 µM | DMS-273 > 100 µM | HOP-18 > 100 µM | KM-20L2 58.3 µM | SNB-78 > 100 µM

NC(=S)N/N=C/C(O[C@@H](/C=N/NC(N)=S)CO)n1cnc2c(N)ncnc21 (stereo partly specified)
inactive: DMS-114 28.4 µM | DMS-273 > 55.1 µM | HOP-18 > 48.8 µM | KM-20L2 > 61.1 µM | M19-MEL 97.1 µM | RXF 631 > 100 µM | SNB-78 > 100 µM | XF498 > 100 µM

CCC12CCCN(Cc3ccccc3)C1c1c(n(C)c3ccccc13)CC2 (stereo unspecified)
inactive: DLD-1 > 253 µM | DMS-273 166 µM | KM-20L2 103 µM | M19-MEL 170 µM

CN(C)C(=S)N=C(Nc1ccccc1)Nc1ccccc1
inactive: DMS-114 > 100 µM | DMS-273 > 100 µM | KM-20L2 > 100 µM | M19-MEL > 100 µM | SNB-78 > 100 µM

C/C(CC(=O)Nc1ccccc1[N+](=O)[O-])=N\NC(N)=O
inactive: DLD-1 > 100 µM | DMS-114 > 100 µM | KM-20L2 > 100 µM | M19-MEL > 100 µM | RXF 631 > 100 µM | SNB-78 > 100 µM | XF498 > 100 µM

CN1CCN=C1c1nnn(-c2ccc([N+](=O)[O-])cc2)c1-c1ccccc1
inactive: DLD-1 67 µM | DMS-114 89.3 µM | DMS-273 > 100 µM | HOP-18 > 100 µM | KM-20L2 > 100 µM | M19-MEL > 100 µM | SNB-78 > 100 µM | XF498 89.3 µM

CC(C)OC(=O)C1=C(O)c2ccccc2S(=O)(=O)N1
inactive: DLD-1 > 100 µM | DMS-273 > 100 µM | HOP-18 > 100 µM | KM-20L2 > 100 µM | M19-MEL > 100 µM | RXF 631 > 100 µM | SNB-78 > 100 µM | XF498 > 100 µM

COc1cc([C@@H]2c3cc4c(cc3[C@@H](NCc3ccccc3)C3COC(=O)[C@@H]32)OCO4)cc(OC)c1O (stereo partly specified)
inactive: DLD-1 21.6 µM | DMS-114 8.41 µM | DMS-273 1.68 µM | KM-20L2 17.9 µM | M19-MEL 14.1 µM | RXF 631 3.44 µM | SNB-78 34.9 µM | XF498 13.2 µM

O=[N+]([O-])c1ccc(Sc2c3ccccc3nc3cc(Cl)ccc23)cc1
inactive: DLD-1 > 10 µM | DMS-114 > 10 µM | HOP-18 > 10 µM | KM-20L2 > 10 µM | M19-MEL > 10 µM | RXF 631 > 10 µM | SNB-78 > 10 µM | XF498 32.7 µM
